Source: the supplement of paper PMC10307832

Legend:
Experiment in all cases: relative viability (nuclei count vs DMSO), 5 days (fraction); higher = more cells survive
[1] = compound: COc1ccc(-c2ccc3c(N4CCOC[C@@H]4C)nc(N4CCOC[C@@H]4C)nc3n2)cc1CO [AZD8055] + Cc1nc(Nc2ncc(C(=O)Nc3c(C)cccc3Cl)s2)cc(N2CCN(CCO)CC2)n1 [Dasatinib] (partner 0.075 µM)
Procedure, shortened: (§1)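 After 5 days of treatment, lung cancer cells in 1536-well plates were fixed and stained in a single step (final 0.05% Triton X-100, 1% formaldehyde, 1 ug/ml Hoechst) and their nuclei counted on 4× images. Treatment had been applied by pin tool the day after seeding as one drug alone or as a fixed anchor-drug dose with five library-drug doses (not always all listed) in √10 steps. Relative viability is the nuclei count of treated wells divided by that of vehicle wells, and values are medians of duplicate plates.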

[2] = compound: COc1ccc(-c2ccc3c(N4CCOC[C@@H]4C)nc(N4CCOC[C@@H]4C)nc3n2)cc1CO [AZD8055] + Nc1ncn([C@H]2C[C@H](O)[C@@H](CO)O2)c(=O)n1 [Decitabine] (partner 2 µM)
Procedure, shortened: as §1

[3] = compound: COc1ccc(-c2ccc3c(N4CCOC[C@@H]4C)nc(N4CCOC[C@@H]4C)nc3n2)cc1CO [AZD8055] + COc1cc2c(Oc3ccc(NC(=O)C4(C(=O)Nc5ccc(F)cc5)CC4)cc3F)ccnc2cc1OCCCN1CCOCC1 [Foretinib] (partner 0.25 µM)
Procedure, shortened: as §1

[4] = compound: COc1ccc(-c2ccc3c(N4CCOC[C@@H]4C)nc(N4CCOC[C@@H]4C)nc3n2)cc1CO [AZD8055] + CCNC(=O)c1noc(-c2cc(C(C)C)c(O)cc2O)c1-c1ccc(CN2CCOCC2)cc1 [Luminespib] (partner 0.01 µM)
Procedure, shortened: as §1

Cell Line | relative viability ([1]; first compound 0.01 µM) | relative viability ([1]; first compound 0.03162 µM) | relative viability ([1]; first compound 0.1 µM) | relative viability ([1]; first compound 0.3162 µM) | relative viability ([1]; first compound 1 µM) | relative viability ([2]; first compound 0.01 µM) | relative viability ([2]; first compound 0.03162 µM) | relative viability ([2]; first compound 0.1 µM) | relative viability ([2]; first compound 0.3162 µM) | relative viability ([2]; first compound 1 µM) | relative viability ([3]; first compound 0.01 µM) | relative viability ([3]; first compound 0.03162 µM) | relative viability ([3]; first compound 0.1 µM) | relative viability ([3]; first compound 0.3162 µM) | relative viability ([3]; first compound 1 µM) | relative viability ([4]; first compound 0.01 µM) | relative viability ([4]; first compound 0.03162 µM) | relative viability ([4]; first compound 0.1 µM) | relative viability ([4]; first compound 0.3162 µM) | relative viability ([4]; first compound 1 µM)
HCC-366 | 0.719 | 0.401 | 0.241 | 0.0939 | 0.0948 | 0.392 | 0.233 | 0.281 | 0.144 | 0.14 | 0.979 | 0.913 | 0.687 | 0.428 | 0.417 |  |  |  |  | 
HCC-827 | 0.334 | 0.273 | 0.258 | 0.241 | 0.167 | 0.329 | 0.279 | 0.278 | 0.262 | 0.23 | 1.14 | 0.98 | 1.02 | 0.424 | 0.337 | 0.6 | 0.336 | 0.308 | 0.319 | 0.13
HOP-62 | 0.741 | 0.554 | 0.556 | 0.272 | 0.171 | 0.193 | 0.213 | 0.239 | 0.215 | 0.194 | 1.01 | 1.01 | 1.09 | 0.609 | 0.521 | 1.08 | 0.842 | 0.888 | 0.634 | 0.482
IA-LM |  |  |  |  |  |  |  |  |  |  | 0.933 | 0.659 | 0.567 | 0.169 | 0.126 |  |  |  |  | 
LC-2-ad | 0.559 | 0.683 | 0.451 | 0.221 | 0.321 | 0.911 | 0.729 | 0.788 | 0.835 | 0.67 | 1.05 | 0.855 | 0.652 | 0.58 | 0.469 | 1.25 | 0.969 | 1.03 | 0.537 | 0.548
LCLC-97TM1 | 0.873 | 0.748 | 0.761 | 0.393 | 0.445 | 0.239 | 0.184 | 0.17 | 0.133 | 0.147 | 0.963 | 0.74 | 0.671 | 0.417 | 0.529 | 0.706 | 0.531 | 0.365 | 0.216 | 0.241
LCLC-103H | 0.412 | 0.315 | 0.379 | 0.2 | 0.211 | 0.767 | 0.616 | 0.532 | 0.417 | 0.374 | 0.72 | 0.616 | 0.583 | 0.359 | 0.281 | 0.951 | 0.762 | 0.793 | 0.414 | 0.271
LK-2 | 0.215 | 0.188 | 0.175 | 0.185 | 0.185 | 0.273 | 0.19 | 0.156 | 0.146 | 0.144 | 0.938 | 0.938 | 0.648 | 0.292 | 0.142 | 0.154 | 0.186 | 0.16 | 0.173 | 0.144
LOU-NH91 | 0.545 | 0.6 | 0.415 | 0.431 | 0.406 | 0.85 | 0.809 | 0.72 | 0.577 | 0.615 | 0.982 | 0.891 | 0.761 | 0.562 | 0.561 | 0.349 | 0.348 | 0.325 | 0.282 | 0.317
